The numbers were not newly measured in patent US20230123388A1 (GLANIS PHARMACEUTICALS, INC., priority 2020, published 2023), which cites them from elsewhere.

By clearance is commonly meant the rate of elimination divided by the concentration. The half-life is the time needed for the level to fall by half in the phase considered.

Experiment in data set [1]: not given
The source holds these as a separate data set.

The subject of data set [2] is albumin and apha1-acid glycoprotein.

Counter-ions that a name gives are not always drawn. Like-named read-outs stand apart in the source and are kept apart here.

For `CCN(CCO)CCCC(C)Nc1ccnc2cc(Cl)ccc12` (stereo not drawn) [Hydroxychloroquine sulfate], the solubility in alcohol entry (alcohol) is listed as “practically insoluble”. Also, where the note is “chloroform”, the solubility in chloroform entry is listed as “practically insoluble”. For the same compound, under “ether”, the solubility in ether result is reported as “practically insoluble”. The solubility in water entry (water) is listed as “freely soluble”.
For `CCN(CCO)CCCC(C)Nc1ccnc2cc(Cl)ccc12` (stereo not drawn) [Hydroxychloroquine], the “time of peak concentration” value in data set [1] (200 mg oral dose) was “around 3 hours”. Further, the “peak concentration in blood” value in data set [1] (200 mg oral dose, blood) was “around 129.6 ng/ml”. In data set [1] (200 mg oral dose, plasma), the “plasma concentration (peak)” value is given as “around 50.3 ng/ml”. Besides, the terminal half-life in data set [1] (based on blood concentration) was 30 to 60 days. Further, the terminal half-life in data set [1] (based on the plasma concentration profile) is reported as ~32 days. In addition, in data set [1] (in vivo), the clearance is 15.5 L/h and the half-life was ~2.08 days. In addition, the volume of distribution entry in data set [1] (in vivo, listed as HCQ) was “very large and high”. Also, the oral bioavailability result in data set [1] (oral tablet) was “about 75%”. In data set [1] (randomized cross over study, 155 mg dose oral and IV infusion), the bioavailability is 0.74. The protein binding in data set [2] was ~40%.
